Here are results for three compounds from patent US20260027078A1, “Cyclopropane Fatty Acid Modulators Of Peroxisome Proliferator-Activated Receptors” (The Regents of the University of California, priority 2022, published 2026).

The structures appear in SMILES notation.

For this test, the system named is Angptl4 mRNA expression in 3T3-L1 cells. Briefly: Angptl4 mRNA expression (RT-qPCR) in 3T3-L1 cells. Format: cell-based, murine. The following applies: antagonist 0, 0.1, 1 and 10 μM, against GW7647, GW501516 or rosiglitazone respectively. Here is the method:
To study the effect of CpFAs on the regulation of Angptl4 expression, Angptl4 mRNA expression levels were quantified by real-time qPCR in cultured murine 3T3-L1 cells. […] FIG. 7A-C show a dose-dependent response to representative CpFAs in murine 3T3-L1 cells.
3T3-L1 cell culture and PPAR activation: 3T3-LI preadipocytes were cultured in growth medium (high glucose Dulbecco's Modified Eagle Medium (DMEM) containing 10% calf serum (CS), 1× Pencillin/Streptomycin, and 1× Glutamax) and seeded in multi-well (12-or 24-well) plates. PPAR specificity of gene target activation was determined in 3T3-L1 preadipocytes using well-described agonists and antagonists for PPAR-α, PPAR-δ, or PPAR-γ. On the day of treatment, preadipocytes were serum starved in 0.25% CS in growth medium for 2-4 hours. Cells were pretreated with increasing concentrations (0, 0.1, 1 and 10 μM) of PPAR antagonists (GW6471 for PPAR-α, GSK3787 for PPARδ, and T0070907 for PPARγ) in serum starve medium. After 1 hour, selective PPAR agonists were added (GW7647 (PPAR-α), GW501516 (PPAR-δ), and rosiglitazone (PPAR-γ)) and incubated for 24 hours. Lysates were collected for RNA extraction. […] CpFA treatments (final concentrations of 37.5, 75, and 150 μM) were prepared in 0.25% serum starve media plus 3% BSA, followed by heating (55° C.) and sonicating for 30 minutes. Treatments were allowed to cool to 37° C. and then added to 3T3-L1 preadipocytes and incubated for 24 hours. Lysates for RNA isolation were collected.
Angptl4 expression analyses: RNA was isolated from cell lysates using Qiagen 96 Total RNA kit. cDNA was synthesized and plated in triplicates in 384-well plates. RT-qPCR was performed using TaqMan Fast-Advanced master mix and TaqMan reagents and primers (18S, rplp0, angplt4) and analyzed using a Thermo Fisher Scientific QuantStudio 6 Flex PCR system. Relative gene expression was analyzed using the fold difference algorithm (2∧(−ΔΔCt)) using the geomean of 2 housekeeping genes (18S, RPLPO) compared to relevant vehicle control.
A general note: Quantitative PCR measures a nucleic acid by following its amplification.
For `CCC(=O)NC[C@H](Cc1ccc(OCCc2nc(-c3ccccc3)oc2C)cc1)N/C(C)=C\C(=O)c1ccc(C(F)(F)F)cc1` [GW6471], the “reversal of synthetic PPAR agonist activity on Angptl4 mRNA expression” value is listed as “concentration-dependent ability”. The entry for `O=C(NCCS(=O)(=O)c1ccc(C(F)(F)F)cn1)c1ccc(Cl)cc1` [GSK3787] is “concentration-dependent ability”; for `O=C(Nc1ccncc1)c1cc([N+](=O)[O-])ccc1Cl` [T0070907] it is “concentration-dependent ability”.
